US20190076507A1, “Artificial Red Blood Cell Having Ability to Inhibit Conversion of Hemoglobin into Methemoglobin” (Public University Corporation Nara Medical University, priority 2016, published 2019)

Key:
Format in all cases: biochemical
[1] = SOD (pseudo SOD) activity, pyrogallol method; conditions: for pseudo SOD: Table 1, pyrogallol, absorbance at 420 nm, Hb form and antioxidant conc. per entry; for SOD / SOD pseudo activity (in words): Examples 1 and 7
Description: (§1) The activity of NADH-cytochrome b5 reductase in the above-mentioned purified and concentrated HbCO solution was determined as NADH-ferricyanide reductase activity according to Beutler, E. above. Diluted Hb samples comprising the enzyme to be measured is mixed with a buffer comprising NADH. The mixed solutions were left standing for 10 minutes at 30° C., and then potassium ferricyanide (K3Fe (CN)6), the enzyme substrate, was added to start the enzyme reaction. The decrease of difference of absorbance at 340 nm, a characteristic absorption of NADH, per minute was measured to determine activity unit E (IU/gHb). […] It was reasoned that the heat-labile NADH-cytochrome b5 reductase was eliminated as denatured and insoluble, or denatured and inactivated, due to the introduction of heat treatment during the purifying step. In addition, activities of NADPH metHb reductase and NADPH diaphorase, which correspond to NADPH-flavin reductase are also determined by the above-mentioned methods according to Beutler, E. Diluted blood samples comprising the enzyme to be measured is mixed with a buffer comprising NADPH. The mixed solutions were left standing for 10 minutes at 37° C., and then methylene bleu (MeBl), the enzyme substrate, was added to start the enzyme reaction. The decrease of difference of absorbance at 340 nm, a characteristic absorption of NADPH, per minute was measured to determine activity unit E (IU/gHb). […] Catalase activity of the purified HbCO solution was determined from the change of the absorbance at 230 nm, the absorption wavelength of H2O2, according to Beutler, E. (RED CELL METABOLISM: A MANUAL OF BIOCHEMICAL METHOD, Grune &Stratton, Inc. pp. 105-106 (1987)). […] Pyrogallol was used for measurement of SOD activity (Marklund, S. and Marklund, G., Eur. J. Biochem. 47, 469-474 (1974); Roth, E. F. Jr. and Gilbert, H. S., Anal. Biochem. 137, 50-53(1984)). Pyrogallol is oxidized with oxygen to generate superoxide, and further reacted to generate a yellow dye with absorbance at 420 nm. SOD inhibits this reaction. SOD enzyme activity was determined based on this inhibitory activity. Analyzed specimens were solutions of purified HbO2, HbCO, metHb and solutions thereof further comprising NADH or L-tyrosine In addition, enzyme activity of crude SFHb solution was also determined as a control. […] When NADH and HbO2 were coexisted, however, high CAT and SOD pseudo activities (Table 1). […] The pseudo activity was detected when NADH alone was present, however, the activity was about a tenth ( 1/10) compared with when HbO2 was coexisted. […] There were results showing that this pseudo activity increased as more NADH was added.

[2] = Catalase (pseudo CAT) activity from change of absorbance at 230 nm of H2O2; conditions: for pseudo CAT: Table 1, NADH without Hb, calculated relative to Hb conc. of 1.5 mM (10 g/dL); for catalase / CAT pseudo activity (in words): Examples 1 and 7
Description: as §1

[3] = molecular target: T1, HbO2 (Homo sapiens, UniProt P68871+P69905); assay: Screening of suppressing effect of compounds against autoxidation of HbO2; conditions: for metHb conversion (%): HbO2 10 g/dL, antioxidant 1 g/dL, 37° C., 24 hours
T1 construct: The Hb released by hemolysis was filtered and collected, with the red blood cell membrane components (stroma) separated and removed; from tissue; host or cells: human red blood cells (expired donated blood); heat-treated, nanofiltered, purified and concentrated HbCO, photoconverted to HbO2
T1 sequence (P69905 2-142 limits assumed): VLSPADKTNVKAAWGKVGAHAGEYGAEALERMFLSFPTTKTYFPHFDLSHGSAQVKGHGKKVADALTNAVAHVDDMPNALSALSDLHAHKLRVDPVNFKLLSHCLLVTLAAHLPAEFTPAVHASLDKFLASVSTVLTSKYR
T1 sequence (P68871 2-147 limits assumed): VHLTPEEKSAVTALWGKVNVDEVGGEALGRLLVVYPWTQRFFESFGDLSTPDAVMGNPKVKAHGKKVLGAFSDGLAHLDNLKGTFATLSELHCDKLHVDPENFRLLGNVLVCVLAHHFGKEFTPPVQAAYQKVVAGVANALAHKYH
Description: NADH was purchased from Oriental Yeast Co. Ltd., and all the rest were purchased from Sigma-Aldrich (St. Louis, Mo., USA). HbCO solution was transferred to an eggplant flask and irradiated with visible light (halogen lamp; LPL Videeoligtvl-302, LPLCO. Ltd., Tokyo, Japan) under oxygen gas flow to convert to HbO2. […] The conversion ratios to metHb were determined from the visible absorption spectrum. The measurement of spectrum between 300 nm to 500 nm was conducted using a spectrophotometer (V-660, Japan Spectroscopic Company (JASCO)) mounted with a device to control the light scattering to the minimum (an integrating sphere). The atmosphere inside of a Thunberg cuvette was replaced with nitrogen gas and the conversion ratios to metHb were determined from the ratios of absorbance at 405 nm (λmax of metHb) and 430 nm (λmax of deoxyHb).

NC(=O)C1=CN([C@@H]2O[C@H](COP(=O)(O)OP(=O)(O)OC[C@H]3O[C@@H](n4cnc5c(N)ncnc54)[C@H](O)[C@@H]3O)[C@@H](O)[C@H]2O)C=CC1 [Entry 12, NADH]
pseudo SOD [1]: 0.6 × 10^2 U/g Hb | pseudo CAT [2]: 19.2 × 10^4 *) IU/g Hb

NC(=O)C1=CN([C@@H]2O[C@H](COP(=O)(O)OP(=O)(O)OC[C@H]3O[C@@H](n4cnc5c(N)ncnc54)[C@H](OP(=O)(O)O)[C@@H]3O)[C@@H](O)[C@H]2O)C=CC1 [NADPH, nicotinamide adenine dinucleotide phosphate (NADPH)]
metHb conversion (%) [3]: 37% | effect to suppress metHb conversion compared with NADH ([3]; coexisting with HbO2 at 37° C. for 26 hours): inferior to that of NADH

OCC(O)CO [glycerol]
metHb conversion (%) [3]: 38%

O=c1c(O)c(-c2ccc(O)c(O)c2)oc2cc(O)cc(O)c12 [quercetin]
metHb conversion (%) [3]: 42%

NCCCC[C@H](N)C(=O)O [L-lysine]
metHb conversion (%) [3]: 34%

NC(=O)c1cccnc1 [nicotinamide]
metHb conversion (%) [3]: 34%

N[C@@H](Cc1c[nH]cn1)C(=O)O [L-histidine]
metHb conversion (%) [3]: 32%

NC(=O)C1=CN([C@@H]2O[C@H](COP(=O)(O)OP(=O)(O)OC[C@H]3O[C@@H](n4cnc5c(N)ncnc54)[C@H](O)[C@@H]3O)[C@@H](O)[C@H]2O)C=CC1 [Entry 11, NADH]
pseudo SOD [1]: 1.3 × 10^2 U/g Hb | pseudo CAT [2]: 4.1 × 10^4 *) IU/g Hb

N=C(N)NCCC[C@H](N)C(=O)O [L-arginine]
metHb conversion (%) [3]: 38%

15: carbonyl Hb 1.5 mM prepared from the purified Hb solution, no antioxidant [Entry 15]
SOD / SOD pseudo activity (in words) [1]: no enzyme activity was found | catalase / CAT pseudo activity (in words) [2]: no enzyme activity was found

O=C1O[C@H]([C@@H](O)CO)C([O-])=C1O.[Na+] [sodium L-Ascorbate]
metHb conversion (%) [3]: 37%

O=C[C@H](O)[C@@H](O)[C@H](O)[C@H](O)CO [D-glucose]
metHb conversion (%) [3]: 36%

NC(=O)C[C@H](N)C(=O)O [L-asparagine]
metHb conversion (%) [3]: 40%

CC1=C(/C=C/C(C)=C/C=C/C(C)=C/C=C/C=C(C)/C=C/C=C(C)/C=C/C2=C(C)C(=O)[C@@H](O)CC2(C)C)C(C)(C)C[C@H](O)C1=O [astaxanthin]
metHb conversion (%) [3]: 39%

14: methemoglobin 1.5 mM prepared from the purified Hb solution, no antioxidant [Entry 14]
SOD / SOD pseudo activity (in words) [1]: no enzyme activity was found | catalase / CAT pseudo activity (in words) [2]: no enzyme activity was found

O=C([O-])[C@H](O)[C@@H](O)[C@H](O)[C@H](O)CO.[Na+] [sodium gluconate]
metHb conversion (%) [3]: 49%

N[C@@H](Cc1c[nH]c2ccccc12)C(=O)O [L-tryptophan]
metHb conversion (%) [3]: 38%

N[C@@H](Cc1ccc(O)cc1)C(=O)O [L-tyrosine]
metHb conversion (%) [3]: 38%

13: oxyhemoglobin 1.5 mM prepared from the purified Hb solution, no antioxidant [Entry 13]
SOD / SOD pseudo activity (in words) [1]: no enzyme activity was found | catalase / CAT pseudo activity (in words) [2]: no enzyme activity was found

NC(=O)CC[C@H](N)C(=O)O [L-glutamine]
metHb conversion (%) [3]: 43%

Nc1ncnc2c1ncn2[C@@H]1O[C@H](COP(=O)(O)OP(=O)(O)OP(=O)(O)O)[C@@H](O)[C@H]1O [ATP]
metHb conversion (%) [3]: 44%

CSCC[C@H](N)C(=O)O [L-methionine]
metHb conversion (%) [3]: 41%

NC(=O)C1=CN([C@@H]2O[C@H](COP(=O)(O)OP(=O)(O)OC[C@H]3O[C@@H](n4cnc5c(N)ncnc54)[C@H](O)[C@@H]3O)[C@@H](O)[C@H]2O)C=CC1 [Entry 10, NADH]
pseudo SOD [1]: 1.1 × 10^2 U/g Hb | pseudo CAT [2]: 3.6 × 10^4 *) IU/g Hb

N[C@@H](CS)C(=O)O [L-cysteine]
metHb conversion (%) [3]: 34%
